From ChEMBL document CHEMBL3988442, “University of Dundee, Small-Polar-MMV Screening Library” (2021) come the findings set out here.

This assay deals with Schistosoma mansoni. Put plainly: High throughput screening of compounds against Schistosoma mansoni motility. The class given is functional. More on the design: dose or concentration left out as unconfirmed.
For `Cn1nc(C(=O)N2CCCCC2c2nc3cc(F)ccc3[nH]2)ccc1=O` (configuration not stated), the “Percent Effect” value is listed as -12.79%. For `CN(CCN1CCCCC1)C(=O)c1cc(CN2CCOCC2)on1` the value was -21.55%; for `O=C(Cc1cccs1)NC1CCN(c2cccc(F)c2)CC1`, -37.43%.

Turning to `CCc1nnc(CN(C)c2nc(C3CCCC3)nc3c2cnn3C)o1`, the “Percent Effect” value is listed as 1.111%. On to `CCc1ncc2c(n1)CN(C(=O)COC)C2`, for which the “Percent Effect” value is -20.5%. As for `CS(=O)(=O)N1CCc2nc(NC(=O)Nc3c(F)cccc3F)sc2C1`, the “Percent Effect” value is -37.65%. Regarding `Cc1nsc(N2CCCN(c3nc(C4CC4)ns3)CC2)n1`, the “Percent Effect” value is -32.57%. Take `CC(C)C1CN(c2ncccn2)CCC(=O)N1Cc1ccc(F)cc1` (configuration not stated): the “Percent Effect” value is -32.66%. `Cc1nc(CN2CCC(N(C)Cc3noc(C(C)C)n3)C2)cs1` (configuration not stated): the “Percent Effect” value is reported as -19.62%. As to `COc1ccccc1OCC(=O)NCC(O)(c1ccccc1)C1CC1` (configuration not stated), the “Percent Effect” value is on record as -13.46%.

With `CC(C1CC1)N(C(=O)NCCCn1nc2ccccn2c1=O)C1CC1` (configuration not stated), the “Percent Effect” value is listed as -46.88%. Regarding `O=C(c1cc(Cl)c2c(c1)OCO2)N1CCN(c2ccccn2)CC1`, the “Percent Effect” value is on record as -95.4%. `COCC(NC(=O)c1cnn(C)c1)c1cccc(C(F)(F)F)c1` (configuration not stated): the “Percent Effect” value is listed as -48.05%. As to `CCOCCN1CCN(Cc2nc(C3CC3)no2)CC1CC` (configuration not stated), the “Percent Effect” value was -35.07%. As for `CN(CCC(F)(F)F)C(=O)[C@H]1CSCN1C(=O)OC(C)(C)C`, the “Percent Effect” value is on record as -27.39%. For `CCC(=O)N1CCC2(CC1)c1nc[nH]c1CCN2S(C)(=O)=O` the value was -32.51%; for `CCN1CC2(CCC1=O)CCN(C(=O)c1ccc(Cl)cc1O)CC2`, -8.652%. On to `Cc1n[nH]c(C)c1C1COCCN1C(=O)Cc1cccc(F)c1` (configuration not stated), for which the “Percent Effect” value is listed as -66.08%. For `Cc1ccc(S(=O)(=O)NC2CNC(=O)C2)cc1C` (configuration not stated) the value was -73.52%; for `O=C(NCCCn1nc2ccccn2c1=O)NC1CCC(O)CC1` (configuration not stated), -74.25%. For the compound `Cc1csc(CNC(=O)Nc2cc(C(F)(F)F)c[nH]c2=O)n1`, the “Percent Effect” value was 7.294%.

On to `CCN1CCCC1CN(CCN(C)C)S(=O)(=O)c1cccc(C#N)c1` (configuration not stated), for which the “Percent Effect” value is listed as 27.57%. With `CC(=O)N1CCC(Oc2ccc(Cl)cn2)CC1` the figure was -33.97%; with `CCCNC(=O)CNC(=O)CCc1ccccc1Br`, 24.36%; with `CNC(=O)CSc1nc2c(cnn2Cc2ccc(F)cc2)c(=O)[nH]1`, -34.73%. As for `c1csc(-c2nc(CN3CCCC3Cn3cncn3)co2)c1` (configuration not stated), the “Percent Effect” value is -94.11%. `CC(C)(C)C(=O)NCCC(=O)NS(=O)(=O)c1ccc2c(c1)OCCO2`: the “Percent Effect” value was -42.92%. Take `CCOCCN1CCN(Cc2nnc(C3CC3)o2)CC1CC` (configuration not stated): the “Percent Effect” value is reported as -4.218%.

As to `COc1ccccc1OCc1cc(C(=O)N2C[C@H](O)[C@@H](N(C)C)C2)n[nH]1`, the “Percent Effect” value is given as -29.56%. For `NC(=O)NCC(=O)N1C[C@H]2CC[C@@H]1CN(Cc1ccccc1)C2`, the “Percent Effect” value is reported as -13.56%. For `Cc1noc(C)c1CCC(=O)N1CCN(CCn2cccn2)CC1` the value was -23.72%; for `CCCNC(=O)C(C)NC(=O)CCc1ccccc1Br` (configuration not stated), 31.68%; for `COc1ccccc1OCC(=O)Nc1ncccc1Cl`, -2.169%.

Consider `CC(C)c1nc(CN(C)C2CCN(Cc3nc(C4CC4)no3)C2)no1` (configuration not stated), for which the “Percent Effect” value is -10.87%. With `CN(CC(F)(F)F)C(=O)C1CSCN1C(=O)OC(C)(C)C` (configuration not stated) the figure was -9.988%; with `COCc1cn([C@@H]2c3ccccc3C3(CCNCC3)[C@H]2O)nn1`, -22.09%; with `CC(CN1CCOCC1)NCc1nncn1C1CCCCC1` (configuration not stated), 0.8698%. For `CCn1nc2c(cc1=O)CN(Cc1nc3ccccc3c(=O)[nH]1)CC2` the value was -62.65%; for `COCCNS(=O)(=O)c1cccc2c1CN(C(=O)c1ccccc1)CC2`, 10.23%.

With `COc1ncccc1C(=O)NCC1Cc2ccccc2O1` (configuration not stated), the “Percent Effect” value is -86.67%. With `CN1CCN(CCCNC(=O)c2cc(Cl)c3c(c2)OCO3)CC1` the figure was -22.9%; with `COc1ccc(NC(C)C(=O)N2CCN(Cc3ccccc3)CC2)cn1` (configuration not stated), -29.98%; with `N#Cc1ccc(CNCC2CCN(CCO)CC2)cc1`, -28.87%.

`O=C(c1cc(=O)[nH]c(=O)[nH]1)N1CCCCC1c1nc2cc(F)ccc2[nH]1` (configuration not stated): the “Percent Effect” value was -2.098%.

`COCC(C)(O)CNC(=O)COc1ccccc1OC` (configuration not stated): the “Percent Effect” value was -28.83%. Consider `COc1ccc(CNC(=O)NC2CCC(O)CC2)c(C(F)(F)F)c1` (configuration not stated), for which the “Percent Effect” value was -1.236%. In the case of `O=C(CSc1ccc2c(c1)OCCO2)NS(=O)(=O)C1CCCCC1`, the “Percent Effect” value is given as 7.796%.

Turning to `Cc1nc(C)n(CC2CN(CC(=O)Nc3cccnc3)CCO2)n1` (configuration not stated), the “Percent Effect” value is recorded as -4.464%. With `CC(C)N1CCC(N2CCN(C3CCC3)CC2CCO)CC1` (configuration not stated), the “Percent Effect” value came out at 7.869%.

As to `CN(C)C(CNS(=O)(=O)c1ccc(F)cc1F)c1cccn1C` (configuration not stated), the “Percent Effect” value was determined as 13.79%. As to `COC(=O)CS(=O)(=O)CCC(=O)N1CCCC1c1ccsc1` (configuration not stated), the “Percent Effect” value is reported as -22.42%.

For `CCSCC(C)NCc1nncn1C1CCCCC1` (configuration not stated), the “Percent Effect” value turned out to be 1.244%.

With `CC(C)CNC(=O)NC(=O)CNc1ccccc1SCC(C)C#N` (configuration not stated), the “Percent Effect” value is recorded as -9.977%. In the case of `CC[C@@]1(O)CCN(C(=O)c2ccc(SC)cc2)C[C@H]1O`, the “Percent Effect” value is 20.95%. Consider `Cc1nc[nH]c1CN1C[C@@H]2CC[C@H](C1)N(C(=O)CCc1cnn(C)c1)C2`, for which the “Percent Effect” value is -10.53%. With `O=C(Nc1nc2c(s1)CN(S(=O)(=O)C1CC1)CC2)c1c(F)cccc1F` the figure was 15.1%. For `CN(C)C(=O)c1ccc2c(c1)N(C)C(CC(=O)NCc1ccno1)CO2` (configuration not stated) the value was 0.8383%; for `COc1cccc2c1OCC(C(=O)N(C)CCCc1cnn(C)c1)C2` (configuration not stated), -37.39%. For `CCc1nnc(CN(C)c2nc(C(C)C)nc3c2cnn3C)o1` the value was -37.68%; for `CN(C)S(=O)(=O)N1CCN(c2nccc(C(F)(F)F)n2)CC1`, -52.05%.

On to `CCc1ncc2c(n1)CN(Cc1nnc(C)o1)CC2`, for which the “Percent Effect” value is -12.75%. Take `COC(=O)c1sccc1S(=O)(=O)N1CCC(Oc2ncccc2Cl)CC1`: the “Percent Effect” value was -59.58%. On to `Cl.O=C(Cc1ccc(F)cc1)N1CCN(CC(O)C2CC2)CC1` (configuration not stated), for which the “Percent Effect” value is reported as -44.17%. In the case of `O=C(CCc1nccs1)N1CCC(N2CCNC2=O)CC1`, the “Percent Effect” value is recorded as -51.15%. Regarding `CC(C)(C)c1ccn(C2(C(=O)O)CCN(c3nccc(N)n3)CC2)n1`, the “Percent Effect” value is recorded as 14.42%.

For `NC(=O)CN1CCC(NC(=O)c2ccn(-c3cccc(F)c3)n2)CC1`, the “Percent Effect” value worked out at 5.204%. Turning to `CN(C)S(=O)(=O)N1CCC(Oc2ccc(C#N)cc2)CC1`, the “Percent Effect” value is 21.82%. For `Cc1nc[nH]c1CN1C[C@@H]2CC[C@H](C1)N(C(=O)CCNS(C)(=O)=O)C2` the value was 1.774%; for `O=C1CC2(CCN(CCO)CC2)CN1Cc1cc(F)cc(F)c1`, 8.592%.

Turning to `O=C(NCC1(CO)CC1)c1cccc2ccccc12`, the “Percent Effect” value was -62.45%. Take `COC(=O)c1cc(OCC2CCC2)cc(C(=O)N[C@H]2CC[C@H](O)CC2)c1`: the “Percent Effect” value is -76.62%. As for `Cc1noc(-c2ccc(N3CCCC(C(=O)N4CCSCC4)C3)nc2)n1` (configuration not stated), the “Percent Effect” value is listed as 26.74%.

Take `Cc1n[nH]c(C)c1C1CCCN1C(=O)NCCSC(C)(C)C` (configuration not stated): the “Percent Effect” value is recorded as -28.72%. For `CCc1cnc(CN(C)C2CCN(CCS(C)(=O)=O)C2)o1` (configuration not stated), the “Percent Effect” value is -9.705%. For the compound `Cc1ccc(-c2cn[nH]c2C2CCCN(c3nccc(N)n3)C2)cc1` (configuration not stated), the “Percent Effect” value came out at 94.46%.

Take `CCC(C)N(C)S(=O)(=O)c1ccc(CCNC(C)=O)s1` (configuration not stated): the “Percent Effect” value was -44.53%. Turning to `COc1ccc(C2CCCN2C(=O)CCNc2ncccn2)cc1` (configuration not stated), the “Percent Effect” value is listed as -36.49%. Take `Cn1cc(CCNC(=O)NC2CCS(=O)(=O)C2)cn1` (configuration not stated): the “Percent Effect” value is recorded as -23.41%. For `CCCOc1ccc(NC(=O)NCCC(=O)N(C)C)cc1Cl`, the “Percent Effect” value is listed as -22.9%. Regarding `Cc1cccc(CNCc2c(C)nn(C)c2N2CCOCC2)n1`, the “Percent Effect” value is reported as -105.3%. Consider `COCCN1CCC(CN(CC2CCCO2)C(=O)COC)CC1` (configuration not stated), for which the “Percent Effect” value worked out at 27.45%. For `Cc1cc(C(=O)N2CCCC2c2nnc3n2CCCCC3)no1` (configuration not stated) the value was -2.272%. In the case of `CCOc1ccc(CN(C)C(=O)NC(C)c2nncn2C)cc1` (configuration not stated), the “Percent Effect” value is -46.5%. On to `CCC1CN(C(=O)c2ccc(=O)[nH]c2)CCC(=O)N1Cc1ccccc1` (configuration not stated), for which the “Percent Effect” value is -27.12%. On to `O=C1NCCCCC1Sc1nnc(C2CC2)n1C1CC1` (configuration not stated), for which the “Percent Effect” value was -44.06%. Take `CC(C)NC(=O)[C@@H]1C[C@H](N)CN1C(=O)c1cc2c([nH]c1=O)CCCC2`: the “Percent Effect” value was -18.08%. For `Cc1cc(N2CCC(N(C)C(=O)Nc3ccccc3)CC2)nc(C)n1`, the “Percent Effect” value is given as -25.09%. On to `O=C(c1ccc(Br)o1)N1CCCC(n2cncn2)C1` (configuration not stated), for which the “Percent Effect” value is reported as -24.61%. On to `Cc1ccc(C(=O)N2CCCC2c2nnc3n2CCCCC3)o1` (configuration not stated), for which the “Percent Effect” value is reported as -40.92%. On to `O=C(c1ccccn1)N1CCCC(c2nccn2Cc2ccncc2)C1` (configuration not stated), for which the “Percent Effect” value is reported as -73.06%. `COc1cccc(OCc2cc(C(=O)NC[C@H]3CCCN3)n[nH]2)c1`: the “Percent Effect” value is on record as -4.692%. Turning to `NC(=O)CCOc1nc(-c2ccccc2Cl)no1`, the “Percent Effect” value is -31.15%. `Cc1ccsc1[C@@H]1CCN(C(=O)c2cc3ccccc3[nH]2)C[C@H]1O`: the “Percent Effect” value was determined as 28.15%.

Consider `Cc1nc(C2CCCN(C(=O)c3sccc3C3CC3)C2)no1` (configuration not stated), for which the “Percent Effect” value is listed as -33.52%. For `CCCC(C)(C)NC(=O)c1ccc(CC2CC(=O)NC2=O)cc1` (configuration not stated), the “Percent Effect” value is -6.374%. For `CC(C)(C)NC(=O)CNC(=O)CCc1ccccc1Br` the value was 20.34%; for `CCCS(=O)(=O)Nc1ccc2c(c1)OCC(C)(C)C(=O)N2C`, 7.848%.
